Results from patent US4470840A, “1-Triacontanol plant growth stimulator formulations” (Biochemical Research Corporation, priority 1981, dated 1984).

Legend:
Type in all cases: in vivo
[1] = tested on: Hybrid Sweet Corn Seedlings (cv. Silver Queen); assay: Greenhouse trial: dry weight and water uptake of seedlings after foliar spraying; details: for % increase (dry weight) / % increase (water uptake) / Dry weight / Water uptake: metal ion 9 mM (none in the last line) with 1-triacontanol 0.1 mg/liter, pH 8 to 10; for Dry weight: control 0.86 g; for Water uptake: control 8.7 g; for Increase in dry weight: 1-triacontanol 0.1 mg/liter, additive 9 mM (none in the last line)
Procedure: (§1) In general, greenhouse trials were conducted as follows: eight to twelve seeds were sown per pot in Peat-Lite® Mix and received an average of 100 ml of water per day. After plants had the third true leaf (average), the various formulations were applied to the leaves as a fine mist at air temperatures listed in Table 1. Temperatures above 20° C., preferably 25°-30° C., are preferred.
(§2) The 1-triacontanol formulation most generally used consisted of a concentrate containing 5 mg of 1-triacontanol dissolved in 1 liter of acetone, with 20 ml of the concentrate being further dissolved to 1 liter with water having a pH between 8 and 10, with over a pH of 11 also being effective. The pH was adjusted with aqueous NaOH and the concentrate added just prior to spraying.
(§3) When other plant growth substances were added to the formulations, these were added either to the concentrate in the polar organic solvent or alternatively in the aqueous solution, depending on the solubility of the plant growth substance. All metal salts were added to the water used to spray the 1-triacontanol formulations. After spraying, preferably about four to nine days or more, plants were harvested with roots, and fresh weights were obtained. Plants were then dried in an oven, preferably at a temperature below 100° C., until constant weight was obtained, and dry weight values were obtained for each plot. Subtraction of the dry weights from the fresh weights gave the water uptake weights (water content) of each plot. The weights of the above mentioned seedlings were compared to the control weights to obtain the percent increases.
(§4) It is particularly advantageous to arrange each of the potted plants in size range categories corresponding to the number of replications used. For example, if five replications are employed, plants are divided into five size categories, normally measured by the height of the plants. Treatments are then assigned randomly within each block (size category). This removes the variation due to plant size for statistical purposes, as is well practiced in the art. The resulting data is analyzed using any appropriate means, which may include the least significant difference method (L.S.D. method), Duncan's multiple range test, as used here (Biometrics, 11: 1 (1955)), or other means.

[2] = tested on: Field Corn Seedlings (cv. Trojan TXS 94, Pioneer 3780, WF9 X Bear 38); assay: as above; details: for Dry wt. increase: 1-triacontanol 0.1 mg/liter
Procedure: as §1, §2, §3, §4

[3] = tested on: Hybrid Sweet Corn Seedlings (cv. Silver Queen); assay: Lengths of stems and total plant length of seedlings sprayed Day 7; details: T = 1-triacontanol 0.1 mg/liter
[4] = 14-day old seedlings, plant growth substance 0.01 mM, with 1-triacontanol 0.1 mg/liter
[5] = 14-day old seedlings, plant growth substance 0.01 mM, without 1-triacontanol
[6] = 14-day old seedlings, Formulation 4
[7] = cv. Trojan TXS 94, brassinosteroid 0.4 μM w/o triacontanol, Formulation 7
[8] = cv. Trojan TXS 94, brassinosteroid 0.4 μM with 1-triacontanol 0.5 mg/liter containing 10 mM CaCl2, Formulation 7
[9] = cv. Trojan TXS 94, metal salt 1 mM (1 ea. for the mixture), Formulation 4
[10] = 14-day old seedlings, metal salt 1 mM (1 ea. for the mixture), with 1-triacontanol 0.1 mg/liter, Formulation 4
[11] = 14-day old seedlings, metal salt 5 mM, with 1-triacontanol 0.1 mg/liter, Formulation 4
[12] = 14-day old seedlings, metal salt 5 mM, with 1-triacontanol 0.1 mg/liter, Formulation 11 (chloroform, Tween-20)
[13] = 14-day old seedlings, metal salt 10 mM, with 1-triacontanol 0.1 mg/liter, Formulation 4
[14] = 14-day old seedlings, metal salt 10 mM, with 1-triacontanol 0.1 mg/liter, Formulation 11 (chloroform, Tween-20)
[15] = 14-day old seedlings, metal salt 10 mM, without 1-triacontanol, Formulation 4
[16] = plant growth substance 0.04 mM, CaCl2 10 mM, 1-triacontanol 0.5 mg per liter, pH 8
[17] = plant growth substance 0.04 mM, CaCl2 50 mM, 1-triacontanol 0.5 mg per liter, pH 8
[18] = 14-day old seedlings, plant growth substance 0.10 mM, with 1-triacontanol 0.1 mg/liter
[19] = 14-day old seedlings, plant growth substance 0.10 mM, without 1-triacontanol

## O=C(O)COc1ccc(Cl)cc1Cl [2,4-D, 2,4-dichlorophenoxyacetic acid, reference compound]
[1]; [4]
  Increases, H2O uptake: -13%
  Increases, dry wt.: +17%
[1]; [5]
  Increases, H2O uptake: -9%
  Increases, dry wt.: +10%
[1]; formulations containing metal ions and synthetic auxin, cv. Silver Queen
  Increase in dry weight over controls: 100%

## [Ba+2] [Ba^+2]
[1]; [6]
  % increase (dry weight): +35%
  % increase (water uptake): +48%
  Dry weight: 1.16 g
  Water uptake: 12.9 g

## CC(C)[C@@H](C)[C@H](O)[C@@H](O)[C@@H](C)[C@H]1CC[C@H]2[C@@H]3COC(=O)[C@H]4C[C@H](O)[C@H](O)C[C@]4(C)[C@H]3CC[C@]12C [Brassinosteroid, 2α,3α,22α,23α-tetrahydroxy-24α-methyl-B-hoo-5α-cholestan-6-one, reference compound]
[2]; [7]
  Increases, dry wt.: +11%
  Increases, water uptake: +8%
[2]; [8]
  Increases, dry wt.: +19%
  Increases, water uptake: +10%

## [Ca+2].[Cl-].[Cl-] [CaCl2]
[2]; cv. Pioneer 3780, metal salt 0 mM, Formulation 11
  Dry wt. increase: -5%
[2]; cv. Pioneer 3780, metal salt 1 mM, Formulation 4
  Dry wt. increase: +19%
[2]; cv. Pioneer 3780, metal salt 7.5 mM, Formulation 4, NAA 1.0 μM
  Dry wt. increase: +32%
[2]; cv. Trojan TXS 94, metal salt 0.5 mM, Formulation 4
  Dry wt. increase: +22%
[2]; [9]
  Dry wt. increase: 20-30%
[2]; cv. Trojan TXS 94, metal salt 1 mM, Formulation 11
  Dry wt. increase: -10%
[2]; cv. Trojan TXS 94, metal salt 1.25 mM, Formulation 4
  Dry wt. increase: +30%
[2]; cv. Trojan TXS 94, metal salt 5 mM, Formulation 7, 2,4,5-T 10.0 μM
  Dry wt. increase: +22%
[2]; cv. Trojan TXS 94, metal salt 5 mM, Formulation 7, 2,4-D 10.0 μM
  Dry wt. increase: +23%
[2]; cv. Trojan TXS 94, metal salt 6 mM, Formulation 7, NAA 1.0 μM
  Dry wt. increase: +28%
[2]; cv. Trojan TXS 94, metal salt 3-5 mM, Formulation 7, IAA 10.0 μM
  Dry wt. increase: 20-30%
[2]; cv. WF9 X Bear 38, metal salt 1 mM, Formulation 4
  Dry wt. increase: +8%
[1]; Formulation 4
  Increase in dry weight: +50%
[1]; [10]
  Increases, H2O uptake: +35%
  Increases, dry wt.: +42%
[1]; [11]
  Increases, H2O uptake: +21%
  Increases, dry wt.: +50%
[1]; [12]
  Increases, H2O uptake: +6%
  Increases, dry wt.: +5%
[1]; [13]
  Increases, H2O uptake: +11%
  Increases, dry wt.: +65%
[1]; [14]
  Increases, H2O uptake: +9%
  Increases, dry wt.: -5%
[1]; [15]
  Increases, H2O uptake: -2%
  Increases, dry wt.: +4%

## [Ca+2] [Ca^+2]
[1]; [6]
  % increase (dry weight): +50%
  % increase (water uptake): +16%
  Dry weight: 1.29 g
  Water uptake: 10.1 g

## [Cd+2] [Cd^+2]
[1]; [6]
  % increase (dry weight): +58%
  % increase (water uptake): +14%
  Dry weight: 1.36 g
  Water uptake: 9.9 g

## O=S(=O)([O-])[O-].O=S(=O)([O-])[O-].[Ce+4] [Ce(SO4)2]
[1]; [10]
  Increases, H2O uptake: +26%
  Increases, dry wt.: +21%

## N.N.N.N.N.N.[Cl-].[Cl-].[Cl-].[Co+3] [Co(NH3)6 Cl3, reference compound]
[1]; Formulation 4
  Increase in dry weight: +13%

## C=C1C[C@]23C[C@@]1(O)CC[C@H]2[C@@]12C=C[C@H](O)[C@@](C)(C(=O)O1)[C@H]2[C@@H]3C(=O)O [GA3, gibberellic acid, reference compound]
[1]; [4]
  Increases, H2O uptake: -3%
  Increases, dry wt.: -15%
[1]; [5]
  Increases, H2O uptake: -6%
  Increases, dry wt.: -24%
[1]; [16]
  Increases, H2O uptake: +15%
  Increases, dry wt.: +16%
[1]; [17]
  Increases, H2O uptake: +13%
  Increases, dry wt.: +22%
[3]
  Increase in length "a": -3%
  Increase in length "b": +6%
[3]; control 11.5 cm
  Length "a" (stem to the first leaf): 11.2 cm
[3]; control 25.0 cm
  Length "b" (total plant length): 26.6 cm

## [Cl][La]([Cl])[Cl] [LaCl3]
[2]; [9]
  Dry wt. increase: 25-30%
[1]; [13]
  Increases, dry wt.: +72%
[1]; [15]
  Increases, H2O uptake: -2%
  Increases, dry wt.: +5%

## O=c1ccc(=O)[nH][nH]1 [MH, maleic hydrazide, reference compound]
[1]; [18]
  Increases, H2O uptake: -7%
  Increases, dry wt.: +12%
[1]; [19]
  Increases, H2O uptake: -1%
  Increases, dry wt.: +7%

## CC(C)CC(N)C(=O)[O-].CC(C)CC(N)C(=O)[O-].[Ca+2] (centres unmarked) [Metal Proteinate, reference compound]
[1]; Formulation 4
  Increase in dry weight: +15%

## [Cl-].[Cl-].[Mg+2] [MgCl2]
[1]; [10]
  Increases, H2O uptake: +20%
  Increases, dry wt.: +21%

## [Mg+2] [Mg^+2]
[1]; [6]
  % increase (dry weight): +73%
  % increase (water uptake): +55%
  Dry weight: 1.49 g
  Water uptake: 13.5 g

## [Cl][Mn][Cl] [MnCl2]
[1]; [10]
  Increases, H2O uptake: +29%
  Increases, dry wt.: +9%

## [Mn+2] [Mn^+2]
[1]; [6]
  % increase (dry weight): +31%
  % increase (water uptake): +25%
  Dry weight: 1.13 g
  Water uptake: 10.9 g

## [Pb+2] [Pb^+2]
[1]; [6]
  % increase (dry weight): +81%
  % increase (water uptake): +55%
  Dry weight: 1.56 g
  Water uptake: 13.5 g

## [Sr+2] [Sr^+2]
[1]; [6]
  % increase (dry weight): +81%
  % increase (water uptake): +48%
  Dry weight: 1.56 g
  Water uptake: 12.9 g

## O=C(O)c1cc(I)cc(I)c1I [TIBA, 2,3,5-triiodobenzoic acid, reference compound]
[1]; [18]
  Increases, H2O uptake: +1%
  Increases, dry wt.: +19%
[1]; [19]
  Increases, H2O uptake: -12%
  Increases, dry wt.: +10%

## [Zn+2] [Zn^+2]
[1]; [6]
  % increase (dry weight): +38%
  % increase (water uptake): +21%
  Dry weight: 1.17 g
  Water uptake: 10.5 g
